Where only a bound is given, the exact number is not on record here.

Data on 5 compounds can be found in PMC11180795 (Frontiers in Pharmacology, 2024).

A short description of data set [1]: Cytotoxicity MTT assay on RAW 264.7 cells. Format: cell-based, Murine. The note with it: mouse, RAW 264.7 macrophage cells, 48 h incubation, read-out: IC50, cytotoxic effect on RAW264.7 cells. The method, then:
Murine macrophage RAW 264.7 cell line obtained from the American Type Culture Collection (Rockville, MD, United States) was maintained in DMEM supplemented with 10% fetal calf serum (FCS) and 1% penicillin/streptomycin/fungizone (PSF) under standard cell culture conditions at 37°C and 5% CO2 in a humidified environment.
The cytotoxic effect of compounds on RAW 264.7 cells was assessed using the 3-(4, 5-dimethylthiazol-2-yl)-2, 5-diphenyl tetrazolium bromide (MTT) assay as established by Mosmann ([Mosmann, 1983]) with slight modifications. Briefly, cells were seeded at a density of 1 × 10^5 cells/mL (100 µL) in 96-well microtitre plates and incubated at 37°C and 5% CO2 in a humidified environment. After 24 h incubation, 100 µL of compounds (at concentration ranged from to 250 μM–1.95 µM) were added to the wells containing cells and further incubated for 48 h in a CO2 incubator. A suitable control (untreated cells) was included and doxorubicin was used as a positive reference. Thereafter, the medium in each well was aspirated from the cells, which were then washed with PBS, and finally fresh medium (200 µL) was added to each well. Then, 30 µL of MTT (5 mg/mL in PBS) was added to each well and the plates were incubated at 37°C for 4 h. The medium was aspirated from the wells and DMSO was added to solubilize the formed formazan crystals. The absorbance was read at 570 nm (SpectraMax 190, Molecular devices). The percentage of cell inhibition was calculated with reference to the control (untreated cells taken as 100% viability). Then, the IC50 values of plant compounds showing more than 50% cell growth inhibition were calculated by plotting the percentage inhibition against the concentration.

The test system of data set [2] is RAW 264.7 macrophage cells. The arrangement: method as in Sukandar et al., 2023. The conditions noted are these: final concentration of 100 μM, ref Sukandar et al., 2023; cited from earlier work.
A further data set relates to NO production. Also on record: method as in Liu et al., 2016. The conditions noted are these: ref Liu et al., 2016; read-out: IC50, inhibition of NO production; cited from earlier work.

`CC(C)=CCCC1(C)C=Cc2c(cc3oc4c(O)ccc(O)c4c(=O)c3c2O)O1` (stereo not shown) [Compound 3, Smeathxanthone B]: the melting point lay in the range of 187 to 189 °C. Besides, the IC50 at 48 h in data set [1] was greater than 100 µM.
On to `COc1cccc2c1C(=O)c1c(O)c3c(c(O)c1C2=O)C[C@@](O)(C(=O)CO)C[C@@H]3O[C@H]1C[C@H](N)[C@H](O)[C@H](C)O1` [Doxorubicin, doxorubicin, reference compound], for which the IC50 at 48 h in data set [1] was 4.63 µM.
With `CC12CCC3C1C(c1c(cc(O)c(C(=O)c4ccccc4)c1O)O2)C3(C)C` (stereo not shown) [clusiacyclol A], in data set [2], the NO inhibition result is “over 85%” and the “cytotoxicity (in words)” value was “without obvious cytotoxicity”.
For the compound garcinoxanthone B, the IC50 in the data set on NO production was 11.3 µM.
Turning to garcinoxanthone C, in the data set with NO production, the IC50 was 18 µM.
